# Entries after “also recorded” stand apart in the source; their conditions may differ.
# How the values were obtained:
# [1] = molecular target: T1, recombinant hCaV3.1 channels (Homo sapiens, UniProt O43497); test: Whole-cell patch-clamp (QPatch), CaV3.1; assay type: cell-based; conditions: for IC50: whole-cell current, holding potential −90 mV, n = 3–5
# T1 construct: host or cells: probably the CHO cell line expressing CaV3.1 (inferred: transient HEK293T cells are assigned to FLIPR only)
# Protocol: (§1) The human embryonic kidney 293 (HEK 293) cell lines (from Emmanuel Bourinet, Montpellier, France) stably expressing CaV3.2 or CaV3.3 were cultured under 5% carbon dioxide at 37 °C in Dulbecco’s Modified Eagle Medium (DMEM) Glutamax (Gibco, Life Technologies, Carlsbad, CA, USA) supplemented with 10% (v/v) fetal bovine serum (FBS), 100 U/mL penicillin, 100 μg/mL streptomycin (Gibco, Life Technologies, Carlsbad, CA, USA), and 750 μg/mL geneticin (G418) (Gibco, Life Technologies). The Chinese Hamster Ovary (CHO) cell lines (Emmanuel Bourinet, Montpellier, France) expressing CaV3.1 were cultured under 5% carbon dioxide at 37 °C in Alpha Minimum Essential Media (MEM) Glutamax (Gibco, Life Technologies), supplemented with 10% (v/v) fetal bovine serum (FBS) and 300 μg/mL geneticin (G418) (Gibco, Life Technologies). The human neuroblastoma SH-SY5Y cells (Victor Diaz, Goettingen, Germany) were cultured under 5% carbon dioxide at 37 °C in RPMI 1640 antibiotic-free medium (Invitrogen, Carlsbad, CA, USA), supplemented with 15% FBS and 2 mM GlutaMAX™ (Invitrogen). D-PBS (Gibco, Life Technologies) was used to wash the cells, and 0.25% Trypsin-EDTA (Gibco, Life Technologies) was used to detach cells from the flask surface. They were split in a ratio of 1:5 (ideally 1000 cells/cm^2) when they reached 70–80% confluence (every 2–3 days). Transiently transfected CaV3.1 HEK293 T cells were used in FLIPR Assays. HEK 293 T cells were cultured under 5% carbon dioxide at 37 °C in DMEM supplemented with 10% (v/v) FBS. D-PBS was used to wash the cells, and 0.25% Trypsin-EDTA was used to detach cells from the flask surface. The cells were split and seeded at 6 million cells per T175 flask, to reach 70–80% confluence after 24 h. The next day, 12 μg DNA of human CaV3.1 was incubated in 900 μL serum-free DMEM with 36 μL FuGENE HD transfection reagent (Promega Corporation, Madison, WI, USA) (1:3 DNA/Fugene ratio) for 20 min, and then the mixture was added into the cell flask slowly, drop by drop. After the transfection, the cells were cultured under 5% carbon dioxide at 37 °C for 24 h and then moved to a 28 °C incubator.
# (§2) Whole-cell patch-clamp experiments were performed on an automated electrophysiology platform QPatch 16 X (Sophion Bioscience A/S, Ballerup, Denmark) in single-hole configuration using 16-channel planar patch chip QPlates (Sophion Bioscience A/S). The extracellular recording solution contained, in mM: TEACl 157, MgCl2 0.5, CaCl2 5, and HEPES 10; pH 7.4 adjusted with TEAOH; and osmolarity 320 mOsm. The intracellular pipette solution contained, in mM: CsF 140, EGTA 1, HEPES 10, and NaCl 10; pH 7.2 adjusted with CsOH; and osmolarity 325 mOsm. Compounds were diluted in extracellular recording solution with 0.1% BSA at the concentrations stated (DMSO ≤ 0.1%), and the effects of compounds were compared to the control (extracellular solution with 0.1% BSA) parameters within the same cell. Compounds’ incubation time varied from two (for the highest concentration) to five (for the lowest concentration) minutes by applying the voltage protocol 10–30 times at 10 s intervals to ensure steady-state inhibition was achieved. The effects of compounds were obtained using 200 ms voltage steps to peak potential from a holding potential of −90 mV. Current–voltage (I–V) relationships were obtained by holding the cells at a potential of −100 mV before applying 50 ms pulses to potentials from −75 to +50 mV every 5 s in 5 mV increments. […]
# [2] = molecular target: T2, recombinant hCaV3.3 channels (Homo sapiens, UniProt Q9P0X4); test: Whole-cell patch-clamp (QPatch), CaV3.3; assay type: cell-based; conditions: for extent of block of CaV3.3 whole-cell inward Ca2+ current: QPatch; for IC50: whole-cell current, holding potential −90 mV, n = 3–5
# T2 construct: the only CaV3.3-expressing cells described
# T2 sequence (Q9P0X4 whole entry): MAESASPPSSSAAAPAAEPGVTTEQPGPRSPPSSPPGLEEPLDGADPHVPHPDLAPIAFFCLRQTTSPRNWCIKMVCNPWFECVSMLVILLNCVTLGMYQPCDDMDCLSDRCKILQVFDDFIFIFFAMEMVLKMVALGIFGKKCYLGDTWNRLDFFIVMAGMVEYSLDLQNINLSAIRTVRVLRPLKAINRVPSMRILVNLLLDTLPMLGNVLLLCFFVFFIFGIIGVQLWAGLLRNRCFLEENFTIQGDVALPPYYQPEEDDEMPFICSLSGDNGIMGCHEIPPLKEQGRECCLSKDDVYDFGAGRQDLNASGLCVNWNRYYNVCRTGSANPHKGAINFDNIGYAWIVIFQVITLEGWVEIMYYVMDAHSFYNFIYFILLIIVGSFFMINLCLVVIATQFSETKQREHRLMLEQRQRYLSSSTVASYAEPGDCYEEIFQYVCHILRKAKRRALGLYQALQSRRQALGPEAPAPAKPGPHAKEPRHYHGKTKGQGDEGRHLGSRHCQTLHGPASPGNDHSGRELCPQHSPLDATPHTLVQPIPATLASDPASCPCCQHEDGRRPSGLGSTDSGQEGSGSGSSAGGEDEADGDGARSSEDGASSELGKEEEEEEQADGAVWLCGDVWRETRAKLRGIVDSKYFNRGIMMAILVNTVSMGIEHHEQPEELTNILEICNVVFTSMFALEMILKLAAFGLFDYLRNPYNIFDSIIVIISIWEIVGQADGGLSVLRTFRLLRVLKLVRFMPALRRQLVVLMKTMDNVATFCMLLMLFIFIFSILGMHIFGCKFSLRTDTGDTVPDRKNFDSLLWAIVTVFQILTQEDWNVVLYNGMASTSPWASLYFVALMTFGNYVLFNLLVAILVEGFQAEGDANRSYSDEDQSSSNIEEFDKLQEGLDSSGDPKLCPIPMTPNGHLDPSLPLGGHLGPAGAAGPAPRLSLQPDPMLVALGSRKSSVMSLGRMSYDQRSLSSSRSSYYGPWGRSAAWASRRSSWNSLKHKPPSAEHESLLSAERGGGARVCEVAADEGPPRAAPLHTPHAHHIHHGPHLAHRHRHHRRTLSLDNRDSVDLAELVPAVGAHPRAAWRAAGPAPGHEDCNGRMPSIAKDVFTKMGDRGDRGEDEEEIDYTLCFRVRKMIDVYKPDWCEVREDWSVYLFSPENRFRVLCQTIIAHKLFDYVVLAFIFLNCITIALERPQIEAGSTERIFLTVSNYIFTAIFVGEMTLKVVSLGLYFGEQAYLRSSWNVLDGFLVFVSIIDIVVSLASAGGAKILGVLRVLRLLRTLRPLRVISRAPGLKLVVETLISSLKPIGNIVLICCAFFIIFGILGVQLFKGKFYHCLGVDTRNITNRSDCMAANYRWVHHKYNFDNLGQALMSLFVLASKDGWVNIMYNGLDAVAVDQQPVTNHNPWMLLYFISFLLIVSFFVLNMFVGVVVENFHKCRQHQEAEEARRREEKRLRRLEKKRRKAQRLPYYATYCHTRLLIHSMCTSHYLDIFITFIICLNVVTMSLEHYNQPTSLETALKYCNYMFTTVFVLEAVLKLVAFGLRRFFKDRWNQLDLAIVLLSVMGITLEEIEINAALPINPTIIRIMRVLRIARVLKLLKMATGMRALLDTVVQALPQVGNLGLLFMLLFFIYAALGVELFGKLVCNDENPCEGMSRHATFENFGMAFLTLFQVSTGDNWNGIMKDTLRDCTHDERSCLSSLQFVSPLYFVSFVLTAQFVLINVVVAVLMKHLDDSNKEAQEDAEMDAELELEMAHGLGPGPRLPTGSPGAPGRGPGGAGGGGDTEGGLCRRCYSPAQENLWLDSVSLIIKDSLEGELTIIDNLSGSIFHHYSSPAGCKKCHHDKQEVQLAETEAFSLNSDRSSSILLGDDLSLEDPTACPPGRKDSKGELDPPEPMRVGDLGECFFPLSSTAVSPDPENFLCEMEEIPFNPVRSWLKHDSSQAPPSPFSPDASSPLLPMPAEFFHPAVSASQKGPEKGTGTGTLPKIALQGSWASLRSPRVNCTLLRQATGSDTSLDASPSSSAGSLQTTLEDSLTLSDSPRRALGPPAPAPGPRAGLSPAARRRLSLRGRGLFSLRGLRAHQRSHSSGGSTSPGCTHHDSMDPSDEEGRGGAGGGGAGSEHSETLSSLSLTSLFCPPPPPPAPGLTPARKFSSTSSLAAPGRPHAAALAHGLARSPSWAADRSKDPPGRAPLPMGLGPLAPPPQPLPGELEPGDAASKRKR
# Protocol: as §1, §2
# [3] = tested on: MCF-7, T-47D, A549 and HT-29 cells; test: Cell viability MTT assay, four cancer cell lines (overall); assay type: cell-based, human; conditions: 50 µM, 72 h
# Protocol: (§3) Human breast cancer cell line MCF-7 and T-47D, lung cancer cell line A549, and colon cancer cell line HT-29 were cultured under 5% carbon dioxide at 37 °C in DMEM Glutamax (Gibco, Life Technologies) supplemented with 10% (v/v) FBS. They were split in a ratio of 1:3–1:6 (ideally 2–4 × 10,000 cells/cm^2) when they reached 70–80% confluence using 0.25% Trypsin-EDTA. For cell viability MTT assay, cells were seeded into 96-well clear bottom culture plates (Corning, Lowell, MA, USA) at a density of 5 × 10^3 cells/well and settled at 37 °C for 24 h.
# (§4) Seeded cells were treated with various concentrations of compounds for desired time period (24, 48 and 72 h). After the treatments, the media were removed from each well, and replaced with 25 μL of serum-free media and 25 μL of MTT Reagent (cat. no., ab211091; Abcam, Cambridge, MA, USA). The plate was then incubated at 37 °C for 3 h, and 75 μL of MTT Solvent (cat. no., ab211091; Abcam) was added into each well after incubation. The absorbance was evaluated at 590 nm. Cell-wells treated with 0.1% DMSO were used as positive control and no cell-wells were used as background control.
# HT-29 cells = test: Cell viability MTT assay, HT-29; assay type: cell-based, human; conditions: for viability at 50 µM: HT-29, 50 µM, n = 4; for IC50: n = 3; for preferential anti-proliferative activity on HT-29: versus MCF-7, T-47D, A549
# Protocol: as §3, §4
# [4] = Homo sapiens, HT-29, 72 h, 72 h treatment
# T1 sequence (O43497 whole entry): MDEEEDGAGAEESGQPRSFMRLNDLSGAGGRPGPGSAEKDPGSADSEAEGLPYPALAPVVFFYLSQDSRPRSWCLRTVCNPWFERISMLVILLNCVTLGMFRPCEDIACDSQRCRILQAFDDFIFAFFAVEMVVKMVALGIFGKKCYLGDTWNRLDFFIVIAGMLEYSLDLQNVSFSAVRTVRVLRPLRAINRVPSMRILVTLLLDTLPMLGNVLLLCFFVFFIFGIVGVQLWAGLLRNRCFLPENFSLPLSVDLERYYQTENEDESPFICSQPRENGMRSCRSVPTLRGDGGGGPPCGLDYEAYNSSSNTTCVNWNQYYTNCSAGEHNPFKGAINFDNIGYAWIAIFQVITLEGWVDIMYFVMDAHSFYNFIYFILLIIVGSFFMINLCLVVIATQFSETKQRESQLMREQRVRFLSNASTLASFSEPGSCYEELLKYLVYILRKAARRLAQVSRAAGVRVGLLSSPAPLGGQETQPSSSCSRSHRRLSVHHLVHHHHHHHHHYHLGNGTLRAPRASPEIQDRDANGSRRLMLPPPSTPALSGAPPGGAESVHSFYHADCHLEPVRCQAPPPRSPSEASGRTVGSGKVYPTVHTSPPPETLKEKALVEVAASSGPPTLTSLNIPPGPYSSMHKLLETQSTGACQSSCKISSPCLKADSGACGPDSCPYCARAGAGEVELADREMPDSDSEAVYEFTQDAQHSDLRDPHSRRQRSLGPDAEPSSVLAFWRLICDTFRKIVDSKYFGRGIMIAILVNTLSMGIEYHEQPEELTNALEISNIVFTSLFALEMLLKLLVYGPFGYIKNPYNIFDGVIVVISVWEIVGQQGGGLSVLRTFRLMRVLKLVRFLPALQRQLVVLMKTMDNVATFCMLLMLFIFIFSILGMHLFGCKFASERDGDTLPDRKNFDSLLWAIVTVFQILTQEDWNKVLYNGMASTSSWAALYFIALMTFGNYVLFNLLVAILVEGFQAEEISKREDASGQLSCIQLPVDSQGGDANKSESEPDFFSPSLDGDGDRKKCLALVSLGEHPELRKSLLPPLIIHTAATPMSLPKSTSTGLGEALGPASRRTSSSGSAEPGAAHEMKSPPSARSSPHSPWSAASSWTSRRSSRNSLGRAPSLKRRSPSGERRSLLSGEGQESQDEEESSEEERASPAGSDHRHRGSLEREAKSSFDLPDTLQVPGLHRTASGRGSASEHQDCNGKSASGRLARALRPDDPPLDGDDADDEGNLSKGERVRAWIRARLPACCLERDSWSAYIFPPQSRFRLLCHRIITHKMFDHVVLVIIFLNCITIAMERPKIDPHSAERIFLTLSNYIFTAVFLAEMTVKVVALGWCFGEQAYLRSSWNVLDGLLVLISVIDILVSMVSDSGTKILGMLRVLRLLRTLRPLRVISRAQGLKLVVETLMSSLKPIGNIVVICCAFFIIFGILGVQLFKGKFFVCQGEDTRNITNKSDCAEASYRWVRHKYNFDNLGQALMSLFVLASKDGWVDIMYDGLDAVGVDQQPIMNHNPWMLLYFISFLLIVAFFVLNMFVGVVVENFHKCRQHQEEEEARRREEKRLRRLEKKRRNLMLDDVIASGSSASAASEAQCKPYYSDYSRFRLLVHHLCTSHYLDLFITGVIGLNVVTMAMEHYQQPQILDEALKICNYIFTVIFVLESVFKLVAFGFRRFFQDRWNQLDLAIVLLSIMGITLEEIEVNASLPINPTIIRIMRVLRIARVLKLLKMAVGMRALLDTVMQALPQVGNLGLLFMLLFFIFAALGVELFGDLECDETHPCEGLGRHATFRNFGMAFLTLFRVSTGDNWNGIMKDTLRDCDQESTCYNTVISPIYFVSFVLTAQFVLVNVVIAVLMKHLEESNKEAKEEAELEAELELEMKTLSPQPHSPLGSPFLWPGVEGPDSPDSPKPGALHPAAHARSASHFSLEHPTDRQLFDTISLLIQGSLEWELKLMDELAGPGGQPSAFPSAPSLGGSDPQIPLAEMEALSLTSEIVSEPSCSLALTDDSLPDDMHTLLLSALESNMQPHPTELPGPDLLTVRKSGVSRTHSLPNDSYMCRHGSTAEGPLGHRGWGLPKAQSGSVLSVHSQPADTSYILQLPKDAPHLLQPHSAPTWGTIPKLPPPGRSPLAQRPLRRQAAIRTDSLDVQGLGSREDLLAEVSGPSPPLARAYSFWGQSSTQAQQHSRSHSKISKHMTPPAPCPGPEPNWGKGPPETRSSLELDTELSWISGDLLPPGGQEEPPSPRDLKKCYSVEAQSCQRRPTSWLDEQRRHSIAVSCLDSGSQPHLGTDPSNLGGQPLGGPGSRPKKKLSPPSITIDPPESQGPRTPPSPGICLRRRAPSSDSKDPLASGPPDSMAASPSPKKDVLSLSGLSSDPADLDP
IC50 [1] [µM],IC50 [2] [µM],IC50 (HT-29 cells; [4]) [µM],IC50 (HT-29 cells; 72 h treatment) [µM],"IC50 (HT-29 cells; Homo sapiens, HT-29, 24 h, 24 h treatment) [µM]","IC50 (HT-29 cells; Homo sapiens, HT-29, 48 h, 48 h treatment) [µM]","effect of low concentrations on CaV3.1 channel current ([1]; QPatch, 49 nM–3.1 µM)","shift in the I–V relationship of CaV3.1 ([1]; QPatch, 2.5 µM and 15 µM)",SMILES,extent of block of CaV3.3 whole-cell inward Ca2+ current [2],effect on cancer cell viability [3],better antiproliferative effect on HT-29 cell viability than on the other three cancer cell lines (HT-29 cells; 72 h treatment),"viability at 50 µM (HT-29 cells; Homo sapiens, 72 h treatment) [%]",preferential anti-proliferative activity on HT-29 (HT-29 cells),improved potency on HT-29 cell viability compared with the other three compounds (HT-29 cells; 72 h treatment) [fold]
1.53,> 50,20,,,,,,"O=C(c1c[nH]c2ccccc12)c1c[nH]c2ccccc12 [DIM-one, 3,3′-diindolylmethanone]",poor inhibition,,≥ 2 fold,5.95 ± 0.19,preferential anti-proliferative activity,
,,1,1.2,5.9,1.6,,,O=C(c1c[nH]c2cc(Br)ccc12)c1c[nH]c2cc(Br)ccc12 [IV],,,~ 3 fold,0.85 ± 0.21,preferential anti-proliferative activity,> 10
8.32 ± 1.53,9.63 ± 0.97,33,,,,weakly enhanced,not accompanied by shifts,"c1ccc2c(Cc3c[nH]c4ccccc34)c[nH]c2c1 [DIM, 3,3′-diindolylmethane, reference compound]",,,,25.3 ± 2.44,,

SMILES,IC50 [1] [µM],IC50 [2] [µM],IC50 (HT-29 cells; [4]) [µM],IC50 (HT-29 cells; 72 h treatment) [µM],"IC50 (HT-29 cells; Homo sapiens, HT-29, 24 h, 24 h treatment) [µM]","IC50 (HT-29 cells; Homo sapiens, HT-29, 48 h, 48 h treatment) [µM]","effect of low concentrations on CaV3.1 channel current ([1]; QPatch, 49 nM–3.1 µM)","shift in the I–V relationship of CaV3.1 ([1]; QPatch, 2.5 µM and 15 µM)",extent of block of CaV3.3 whole-cell inward Ca2+ current [2],effect on cancer cell viability [3],better antiproliferative effect on HT-29 cell viability than on the other three cancer cell lines (HT-29 cells; 72 h treatment),"viability at 50 µM (HT-29 cells; Homo sapiens, 72 h treatment) [%]",preferential anti-proliferative activity on HT-29 (HT-29 cells),improved potency on HT-29 cell viability compared with the other three compounds (HT-29 cells; 72 h treatment) [fold]
"O=C(c1cn(Cc2ccccc2)c2ccccc12)c1cn(Cc2ccccc2)c2ccccc12 [IX, bis(1-benzyl-1H-indol-3-yl)methanone]",47.4 ± 11.7,2.09 ± 0.69,,,,,,,partially blocked; also recorded: only partial inhibition,did not affect cancer cell viability,,,,

# From publication PMC9412534, “Diindolylmethane Derivatives: New Selective Blockers for T-Type Calcium Channels” (Membranes, 2022)
